Measured values reported in patent publication US12358948B2, “Neurotensinergic agonists and methods of using same preventing or treating pain” (priority 2019, dated 2025).
Read-outs that look alike come from different tables or passages of the source. *1 amine or outer side, *2 acyl side, *3 side chain or, on linkers, in order; H or OH if unused. Where a SMILES comes first, the peptide text is derived from it. Bridges are numbered along the chain shown (N, C = ends). [ ]: non-standard residue; d: D form. ξ: configuration not given here. Ala(9-anthryl) = N[C@@H](Cc1c2ccccc2cc2ccccc12)C(=O)O; ξαMeNle(6-ylidene) = CC(CCCC=[*:3])(N[*:1])C(=O)[*:2]; X1 = O=C(C1C[C@@H]2CCCC[C@@H]2N1[*:1])[*:2]; Phe(3-Br) = N[C@@H](Cc1cccc(Br)c1)C(=O)O; Dip = N[C@H](C(=O)O)C(c1ccccc1)c1ccccc1; hTyr = N[C@@H](CCc1ccc(O)cc1)C(=O)O; 3Pal = N[C@@H](Cc1cccnc1)C(=O)O; 2Thi = N[C@@H](Cc1cccs1)C(=O)O; Cit = NC(=O)NCCC[C@H](N)C(=O)O; AllylGly = C=CC[C@H](N)C(=O)O; hLys = NCCCCC[C@H](N)C(=O)O; Nle = CCCC[C@H](N)C(=O)O; Dab = NCC[C@H](N)C(=O)O

What was measured:
[1] = target: T1, hNTS1 receptor (Homo sapiens, UniProt P30989); assay: Competitive radioligand binding assay on the hNTS1 receptor; conditions: membranes of CHO-K1 cells expressing hNTS1
T1 construct: membranes prepared from them
Method: (§1) CHO-K1 (Chinese Hamster Ovary) cells stably expressing hNTS1 and 1321N1 cells stably expressing hNTS2 (ES-690-C and ES-691-C from PerkinElmer, Montréal, Canada) were cultured respectively in Ham's F12 and in DMEM culture media. Culture media were supplemented with 10% FBS, 100 U/mL penicillin, 100 μg/mL streptomycin, 20 mM HEPES, and 0.4 mg/mL G418 at 37° C. in a humidified chamber at 5% CO2.
(§2) The cells expressing hNTS1 were frozen when they reached 80% confluency. They were scrapped off the dish with 10 mM Tris buffer, 1 mM EDTA, pH 7.5 and centrifuged at 15,000 g for 5 min at 4° C. The pellet was then re-suspended in 1 mL binding buffer. The cells expressing hNTS2 were also frozen when they reached 80% confluency. They were scraped off the dish with PBS, 0.5 mM EDTA, pH 7.5 and sonicated for 5 minutes (pulse 30 s/5 s off, amplitude 40%). They were ultracentrifuged at 100 000 g for 60 minutes at 4° C. The pellet was re-suspended in 1 mL freezing buffer (PBS, glycerol, 0.5 mM EDTA), sonicated for 1 minute (pulse 30 s/5 s off, amplitude 50%) and further diluted in binding buffer. Competitive radioligand binding experiments were performed by incubating 15 μg of cell membranes expressing the hNTS1 receptor with […] of ^125I-[Tyr^3]-NT (2200 Ci/mmol) or 50 μg of cell membranes expressing the hNTS2 receptor with […] of ^125I-[Tyr^3]-NT in binding buffer (50 mM Tris-HCl, pH 7.5, 0.2% BSA) in the presence of increasing concentrations of analogues ranging from 10^−11 to 10^−4 M for 60 min at 25° C. After incubation, the binding reaction mixture was transferred in PEI-coated 96-well filter plates (glass fiber filters GF/B, Millipore, Billerica, MA). Reaction was terminated by filtration, and plates were washed three times with 200 μL ice-cold binding buffer. Glass filters were then counted using a γ-counter (2470 Wizard2, PerkinElmer, Mississauga, Ontario, Canada). Non-specific binding was measured in the presence of 10^−5 M unlabeled NT (8-13) and represented less than 5% of total binding. IC50 values were determined from competition curves as the unlabeled ligand concentration inhibiting 50% of ^125I-[Tyr^3]-NT-specific binding.
(§3) Competitive radioligand binding data were plotted using the nonlinear regression One-site-Fit Log(IC50) and represented the mean±SEM of at least three independent experiments in triplicates.

[2] = target: T2, hNTS2 receptor (Homo sapiens, UniProt O95665); assay: Competitive radioligand binding assay on the hNTS2 receptor; conditions: for IC50: membranes of 1321N1 cells expressing hNTS2; for Selectivity: ratio IC50 for NTS1 : IC50 for NTS2
T2 construct: membranes prepared from them
Method: as §1, §2, §3

[3] = displacement of 125I-[Tyr3]-NT, read-out: IC50 NTS1
[4] = displacement of 125I-[Tyr3]-NT, read-out: IC50 NTS2 (converted)

T2 sequence (O95665 whole entry): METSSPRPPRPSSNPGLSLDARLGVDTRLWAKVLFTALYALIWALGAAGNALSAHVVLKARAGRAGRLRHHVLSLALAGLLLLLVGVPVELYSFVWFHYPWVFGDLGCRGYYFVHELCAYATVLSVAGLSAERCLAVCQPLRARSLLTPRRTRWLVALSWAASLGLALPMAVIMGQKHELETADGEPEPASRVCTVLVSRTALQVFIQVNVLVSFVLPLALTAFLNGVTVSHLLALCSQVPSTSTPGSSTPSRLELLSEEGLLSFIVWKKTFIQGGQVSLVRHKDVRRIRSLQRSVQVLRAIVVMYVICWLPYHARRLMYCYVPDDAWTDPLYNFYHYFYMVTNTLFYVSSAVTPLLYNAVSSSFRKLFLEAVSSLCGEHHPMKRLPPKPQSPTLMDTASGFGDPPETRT
T1 sequence (P30989 whole entry): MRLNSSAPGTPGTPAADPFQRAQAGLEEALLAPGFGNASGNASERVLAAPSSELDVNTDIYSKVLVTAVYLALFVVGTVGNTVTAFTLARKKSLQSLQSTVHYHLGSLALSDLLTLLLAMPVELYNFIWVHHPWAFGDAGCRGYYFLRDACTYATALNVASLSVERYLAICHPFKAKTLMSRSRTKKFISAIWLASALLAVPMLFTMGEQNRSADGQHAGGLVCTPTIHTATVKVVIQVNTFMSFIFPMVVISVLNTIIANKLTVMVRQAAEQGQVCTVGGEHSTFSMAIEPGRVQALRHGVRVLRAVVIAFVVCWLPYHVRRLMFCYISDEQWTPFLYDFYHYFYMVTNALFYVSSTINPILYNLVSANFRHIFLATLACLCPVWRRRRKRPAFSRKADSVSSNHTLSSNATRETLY

| Structure (SMILES) | IC50 [1, 3] [µM] | IC50 [2, 4] [µM] | Selectivity [2] | IC50 ([1]; IC50 NTS1, displacement of 125I-[Tyr3]-NT) [µM] | IC50 ([2]; IC50 NTS2, displacement of 125I-[Tyr3]-NT) [µM] |
| --- | --- | --- | --- | --- | --- |
| CC(C)C[C@H](NC(=O)[C@H](Cc1ccc(O)cc1)NC(=O)[C@@H]1CC=CC[C@H](N)C(=O)N[C@@H](CCCNC(N)=O)C(=O)N[C@@H](CCCCN)C(=O)N1)C(=O)O [compound 147, c[G(All)citrullineKG(All)]YL] (H-[AllylGly][Cit]K[AllylGly]YL-OH; staple 1-4) | > 100 | 0.6 | 167 | – | – |
| CC(C)C[C@H](NC(=O)[C@H](Cc1ccc(O)cc1)NC(=O)[C@@H]1CSSC[C@H](N)C(=O)N[C@@H](CCCCN)C(=O)N[C@@H](CCCCN)C(=O)N1)C(=O)O [compound 152, c[CKKC]YL] (H-CKKCYL-OH; disulfide 1-4) | > 1000 | 1.4 | 7 | – | – |
| CC(C)C[C@H](NC(=O)[C@H](Cc1ccc(O)cc1)NC(=O)[C@@H]1CC=CC[C@H](N)C(=O)N[C@@H](Cc2c[nH]cn2)C(=O)N[C@@H](CCCCN)C(=O)N1)C(=O)O [compound 83, c[G(All)HKG(All)]YL] (H-[AllylGly]HK[AllylGly]YL-OH; staple 1-4) | > 100 | 1.32 | >76 | – | – |
| NCCCC[C@@H]1NC(=O)CCC=CC[C@@H](C(=O)N[C@@H](Cc2ccc(Br)cc2)C(=O)N[C@@H](CC2CCCC2)C(=O)O)NC(=O)[C@H](CCCCN)NC1=O [compound 134, cK([Pentenoyl)KG(All)]F(4-bromo)A (cyclopentyl)] | > 100 | 0.0177 | 5650 | – | – |
| CC(C)C[C@H](NC(=O)[C@H](Cc1ccc(O)cc1)NC(=O)[C@@H]1CCNC(=O)CC[C@H](N)C(=O)N[C@@H](CCCCN)C(=O)N[C@@H](CCCCN)C(=O)N1)C(=O)O [compound 104, c[EKKDab]YL] (H-EKK[Dab]YL-OH; lactam 1-4) | > 100 | 16.5 | >6.1 | – | – |
| CC(C)C[C@H](NC(=O)[C@H](Cc1ccc(O)cc1)NC(=O)C1(C)CCCC=CCCCC(C)(N)C(=O)N[C@@H](CCCCN)C(=O)N[C@@H](CCCCN)C(=O)N1)C(=O)O (stereo partly drawn) [compound 93, c[G(alpha-Me-(4-Pentenyl))KKG*(alpha-Me(4-Pentenyl))]YL] (H-[ξαMeNle(6-ylidene)]KK[ξαMeNle(6-ylidene)]YL-OH; staple 1-4) | > 100 | 0.0344 | >2907 | – | – |
| CC(C)C[C@H](NC(=O)[C@H](Cc1ccc(O)cc1)NC(=O)[C@@H]1CC=CC[C@H](N)C(=O)N[C@@H](CCCCCN)C(=O)N[C@@H](CCCCN)C(=O)N1)C(=O)O [compound 150, c[G(All)homolysineKG(All)]YL] (H-[AllylGly][hLys]K[AllylGly]YL-OH; staple 1-4) | > 100 | 0.187 | 533 | – | – |
| CC(C)C[C@H](NC(=O)[C@H](Cc1cccnc1)NC(=O)[C@@H]1CC=CC[C@H](N)C(=O)N[C@@H](CCCCN)C(=O)N[C@@H](CCCCN)C(=O)N1)C(=O)O [compound 169, c[G(All)KKG(All)]A(3-pyridyl)L] (H-[AllylGly]KK[AllylGly][3Pal]L-OH; staple 1-4) | > 100 | 0.234 | 427 | – | – |
| CC(C)C[C@H](NC(=O)[C@H](Cc1ccc(O)cc1)NC(=O)[C@@H]1CC=CC[C@H](N)C(=O)N[C@@H](CCCCN)C(=O)N[C@H](CCCCN)C(=O)N1)C(=O)O [compound 54, c[G(All)KK*G(All)]YL] (H-[AllylGly]K[dK][AllylGly]YL-OH; staple 1-4) | > 100 | 0.321 | >311.9 | – | – |
| CC(C)C[C@H](NC(=O)[C@H](Cc1c2ccccc2cc2ccccc12)NC(=O)[C@@H]1CC=CC[C@H](N)C(=O)N[C@@H](CCCCN)C(=O)N[C@@H](CCCCN)C(=O)N1)C(=O)O [compound 162, c[G(All)KKG(All)]A(anthryl-) L] (H-[AllylGly]KK[AllylGly][Ala(9-anthryl)]L-OH; staple 1-4) | – | – | 5249 | > 100 | 0.0191 |
| CC(C)C[C@H](NC(=O)[C@H](Cc1cccc(Br)c1)NC(=O)[C@@H]1CC=CC[C@H](N)C(=O)N[C@@H](CCCCN)C(=O)N[C@@H](CCCCN)C(=O)N1)C(=O)O [compound 115, c[G(All)KKG(All)]F(3-bromo)L] (H-[AllylGly]KK[AllylGly][Phe(3-Br)]L-OH; staple 1-4) | > 100 | 0.0284 | >3523 | – | – |
| CC(C)C[C@H](NC(=O)[C@H](Cc1ccc(O)cc1)NC(=O)[C@@H]1CC=CC[C@H](N)C(=O)N[C@@H](CCCCN)C(=O)N[C@@H](CCCCCN)C(=O)N1)C(=O)O [compound 149, c[G(All)KhomolysineG(All)]YL] (H-[AllylGly]K[hLys][AllylGly]YL-OH; staple 1-4) | > 100 | 0.214 | 468 | – | – |
| CC(C)C[C@H](NC(=O)[C@H](Cc1cccs1)NC(=O)[C@@H]1CC=CC[C@H](N)C(=O)N[C@@H](CCCCN)C(=O)N[C@@H](CCCCN)C(=O)N1)C(=O)O [compound 159, c[G(All)KKG(All)]A(2-thienyl)L] (H-[AllylGly]KK[AllylGly][2Thi]L-OH; staple 1-4) | > 100 | 0.09 | 1112 | – | – |
| CC(C)C[C@H](NC(=O)[C@@H](NC(=O)[C@@H]1CC=CC[C@H](N)C(=O)N[C@@H](CCCCN)C(=O)N[C@@H](CCCCN)C(=O)N1)C(c1ccccc1)c1ccccc1)C(=O)O [compound 140, c[G(All)KKG(All)]A (diphenyl)L] (H-[AllylGly]KK[AllylGly][Dip]L-OH; staple 1-4) | > 100 | 0.631 | 158 | – | – |
| CCCC[C@@H]1NC(=O)[C@H](CCCCN)NC(=O)[C@@H](N)CC=CC[C@@H](C(=O)N[C@@H](Cc2ccc(O)cc2)C(=O)N[C@@H](CC(C)C)C(=O)O)NC1=O [compound 57, c[G(All)KNleG(All)]YL] (H-[AllylGly]K[Nle][AllylGly]YL-OH; staple 1-4) | > 100 | 0.716 | >140 | – | – |
| CC(C)C[C@H](NC(=O)C1C[C@@H]2CCCC[C@@H]2N1C(=O)[C@@H]1CC=CC[C@H](N)C(=O)N[C@@H](CCCCN)C(=O)N[C@@H](CCCCN)C(=O)N1)C(=O)O (stereo partly drawn) [compound 166, c[G(All)KKG(All)p (octahydroindol)L] (H-[AllylGly]KK[AllylGly][X1]L-OH; staple 1-4) | > 100 | 0.0333 | 3006 | – | – |
| CC(C)C[C@H](NC(=O)[C@H](Cc1ccc(O)cc1)NC(=O)[C@@H]1CC(=O)NCCCC[C@H](N)C(=O)N[C@@H](CCCCN)C(=O)N[C@@H](CCCCN)C(=O)N1)C(=O)O [compound 97, c[KKKD]YL] (H-KKKDYL-OH; lactam 1-4) | > 100 | 1.02 | >98.4 | – | – |
| CC(C)C[C@H](NC(=O)[C@H](CCc1ccc(O)cc1)NC(=O)[C@@H]1CC=CC[C@H](N)C(=O)N[C@@H](CCCCN)C(=O)N[C@@H](CCCCN)C(=O)N1)C(=O)O [compound 126, c[G(All)KKG(All)]homoYL] (H-[AllylGly]KK[AllylGly][hTyr]L-OH; staple 1-4) | > 100 | 0.0817 | 1224 | – | – |
| CC(C)C[C@H](NC(=O)[C@H](Cc1ccc(O)cc1)NC(=O)[C@@H]1CCC(=O)NCC[C@H](N)C(=O)N[C@@H](CCCCN)C(=O)N[C@@H](CCCCN)C(=O)N1)C(=O)O [compound 99, c[DabKKE]YL] (H-[Dab]KKEYL-OH; lactam 1-4) | > 100 | 11 | >9 | – | – |
